Patent US8933056B2, “Soft protease inhibitors and pro-soft forms thereof” (Trustees of Tufts College, priority 2005, dated 2015)
Where two headings read alike, the source gives them in different places.

Assays:
[1] = target: DP-IV (Sus scrofa (Pig), UniProt P22411); assay: DPP IV inhibition: thioxamide v. oxoamide; format: biochemical, porcine; conditions: for Inactivation Index: IC50 pH 8.0 to pH 2.0
Experimental: The inhibitory activity of a compound may be tested easily. […] A compound is then screened for its ability to inhibit the protease activity of DP-IV with respect to a […] substrate. […] Briefly, a reaction containing 50 micromol sodium Hepes (pH 7.8), 10 micromol Ala-Pro-p-nitroanilide, 6 milliunits of DP-IV, and 2% (vol/vol) dimethylformamide in a total volume of 1.0 mL. The reaction was initiated by the addition of enzyme and reaction rates were measured at 25 C; formation of reaction product (para-nitroanilide) in the presence and absence of a test compound can be detected photometrically, e.g., at 410 nm.

[2] = target: Proteasome (Homo sapiens, UniProt P28074); assay: X-boroLeu proteasome inhibition: thioxamide v. oxoamide; format: biochemical; conditions: IC50 ph 7.6 to ph 2.0
[3] = Inactivation at pH 7.8 followed by 1H NMR; format: physicochemical; conditions: sodium phosphate buffer; pH jump from pH 2 to pH 7.8, 1H NMR integrals fit to single exponential; read-out: half-life for the inactivation reaction
[4] = target: T1, DPPIV (Homo sapiens (Human), UniProt P27487); assay: physchem; conditions: pH 7.8
Experimental: DPP IV inhibition was measured at various times after the pH jump and the IC50 values were plotted as a function of time. […] This value was fit to a single exponential.

[5] = target: T1, DPPIV; assay: DPIV inhibition assay (Examples 2 and 3); format: biochemical; conditions: for DPPIV Ratio: IC50 pH 7.8 to pH 2
Experimental: (§1) The inhibitor solution is prepared by dissolving 3-5 mg of inhibitor in pH 2 solution (0.01 N HCl), such that the concentration of the solution is equal to 1 mg/10 mL. A 10 μL sample of this solution is then added to 990 μL of pH 8 buffer (0.1 M HEPES, 0.14 M NaCl), and the solution is allowed to stand at room temperature overnight.
(§2) The substrate solution is prepared by dissolving 2.0 mg of L-alanyl-L-proline-para-nitroanilide into 20 mL of pH 8 buffer.
(§3) 250 μL of enzyme solution is added to well #B1 to #H1, #A2 to #H2, and #A3 to #H3 of a 96 well plate, while well #A1 receives 250 μL of pH 8 buffer instead of enzyme solution.
(§4) A 1:10 dilution is then performed by adding inhibitor solution to #A5 and the solution is mixed well before transferring 10 μL of this solution from #A5 to #B5. The solution in #B5 is then mixed well before transferring 10 μL of this solution from #B5 to #C5. The solution in #C5 is then mixed well before transferring 10 μL of this solution from #C5 to #D5. The solution in #D5 is then mixed well before transferring 10 μL of this solution from #D5 to #E5. The solution in #E5 is then mixed well before transferring 10 μL of this solution from #E5 to #F5. The solution in #F5 is then mixed well before transferring 10 μL of this solution from #F5 to #G5. The solution in #G5 is then mixed well before transferring 10 μL of this solution from #G5 to #H5.
(§5) A 30 μL aliquot is then transferred from #H5 to #H3 for row H, and the contents are mixed well. The analogous procedure is repeated for rows G, F, E, D, C, B, and A sequentially. The plate is then shaken on a plate shaker for 5 min before allowing the plate to incubate at room temperature for an additional 5 min.
(§6) Once the plate has been allowed to incubate, 30 μL of substrate is added to each well except well #A1. […] The absorbance is then immediately read at a wavelength of 410 nm.
(§7) In this example, the assay is conducted for DPIV and DP8 or DP9. The ratio of IC50 values for each tested compound is calculated in order to determine the selectivity for the DPIV isoform. […]

[6] = target: DP8 (Homo sapiens (Human), UniProt Q6V1X1); assay: Selectivity for dipeptidyl peptidase isoforms, DP8; format: biochemical; conditions: for DP8 Ratio: IC50 pH 7.8 to pH 2
Experimental: as §1, §2, §3, §4, §5, §6, §7

[7] = target: DP9 (Homo sapiens (Human), UniProt Q86TI2); assay: Selectivity for dipeptidyl peptidase isoforms, DP9; format: biochemical; conditions: for DP9 Ratio: IC50 pH 7.8 to pH 2
Experimental: as §1, §2, §3, §4, §5, §6, §7

[8] = pH 2.0, read-out: IC50 (pH 2.0)
[9] = pH 8.0, read-out: IC50 (pH 8.0)
[10] = pH 2, read-out: IC50s DPPIV pH 2
[11] = pH 7.8, read-out: IC50s DPPIV pH 7.8
[12] = pH 7.8, read-out: IC50s DP8 pH 7.8
[13] = pH 7.8, read-out: IC50s DP9 pH 7.8

Sequence of DP9 (Q86TI2 whole entry, species assumed, canonical isoform): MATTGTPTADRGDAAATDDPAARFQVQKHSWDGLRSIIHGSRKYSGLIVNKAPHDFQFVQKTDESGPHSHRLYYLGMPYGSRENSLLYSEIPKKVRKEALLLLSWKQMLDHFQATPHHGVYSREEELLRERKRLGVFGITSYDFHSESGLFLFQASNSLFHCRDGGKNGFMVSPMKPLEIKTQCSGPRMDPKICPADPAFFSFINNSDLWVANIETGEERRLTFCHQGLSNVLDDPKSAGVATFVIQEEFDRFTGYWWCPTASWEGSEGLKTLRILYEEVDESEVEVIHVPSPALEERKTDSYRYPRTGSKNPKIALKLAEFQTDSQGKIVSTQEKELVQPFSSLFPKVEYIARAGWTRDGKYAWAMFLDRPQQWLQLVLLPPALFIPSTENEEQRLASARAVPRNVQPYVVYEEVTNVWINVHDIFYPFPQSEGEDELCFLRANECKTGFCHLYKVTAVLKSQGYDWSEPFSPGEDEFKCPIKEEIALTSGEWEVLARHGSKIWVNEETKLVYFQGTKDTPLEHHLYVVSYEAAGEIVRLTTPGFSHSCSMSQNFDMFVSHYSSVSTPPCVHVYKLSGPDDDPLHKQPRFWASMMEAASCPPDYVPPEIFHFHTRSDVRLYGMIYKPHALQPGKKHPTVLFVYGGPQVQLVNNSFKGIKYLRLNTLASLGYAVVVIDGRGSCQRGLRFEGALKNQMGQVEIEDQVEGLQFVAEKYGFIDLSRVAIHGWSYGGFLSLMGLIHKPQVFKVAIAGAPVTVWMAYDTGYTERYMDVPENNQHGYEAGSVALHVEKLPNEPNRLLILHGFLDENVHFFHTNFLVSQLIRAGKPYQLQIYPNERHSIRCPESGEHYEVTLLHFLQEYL
Sequence of Proteasome (P28074 60-263 limits assumed): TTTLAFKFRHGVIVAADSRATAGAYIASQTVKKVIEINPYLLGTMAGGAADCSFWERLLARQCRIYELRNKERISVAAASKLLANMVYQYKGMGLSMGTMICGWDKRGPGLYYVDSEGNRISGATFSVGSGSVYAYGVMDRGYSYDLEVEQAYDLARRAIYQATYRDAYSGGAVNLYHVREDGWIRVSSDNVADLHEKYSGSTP
Sequence of DP-IV (P22411 whole entry): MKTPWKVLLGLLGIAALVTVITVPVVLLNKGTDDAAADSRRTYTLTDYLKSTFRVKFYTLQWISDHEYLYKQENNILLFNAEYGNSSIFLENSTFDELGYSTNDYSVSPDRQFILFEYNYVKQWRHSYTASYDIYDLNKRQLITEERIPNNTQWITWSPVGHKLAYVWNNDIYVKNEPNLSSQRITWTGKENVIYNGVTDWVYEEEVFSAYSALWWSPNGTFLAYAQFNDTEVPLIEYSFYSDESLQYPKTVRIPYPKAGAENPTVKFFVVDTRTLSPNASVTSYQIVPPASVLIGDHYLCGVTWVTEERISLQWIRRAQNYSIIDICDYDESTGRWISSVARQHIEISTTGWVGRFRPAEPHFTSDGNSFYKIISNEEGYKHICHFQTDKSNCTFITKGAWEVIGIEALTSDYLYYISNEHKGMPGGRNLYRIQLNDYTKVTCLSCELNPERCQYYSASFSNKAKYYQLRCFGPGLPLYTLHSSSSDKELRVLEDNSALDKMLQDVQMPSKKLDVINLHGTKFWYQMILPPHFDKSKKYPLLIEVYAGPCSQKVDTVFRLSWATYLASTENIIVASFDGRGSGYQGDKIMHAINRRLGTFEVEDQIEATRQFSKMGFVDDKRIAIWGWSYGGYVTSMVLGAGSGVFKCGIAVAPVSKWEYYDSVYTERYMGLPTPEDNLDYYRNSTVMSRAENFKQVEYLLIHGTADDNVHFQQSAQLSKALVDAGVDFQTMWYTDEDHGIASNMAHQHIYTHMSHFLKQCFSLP
Sequence of DP8 (Q6V1X1 whole entry, species assumed, canonical isoform): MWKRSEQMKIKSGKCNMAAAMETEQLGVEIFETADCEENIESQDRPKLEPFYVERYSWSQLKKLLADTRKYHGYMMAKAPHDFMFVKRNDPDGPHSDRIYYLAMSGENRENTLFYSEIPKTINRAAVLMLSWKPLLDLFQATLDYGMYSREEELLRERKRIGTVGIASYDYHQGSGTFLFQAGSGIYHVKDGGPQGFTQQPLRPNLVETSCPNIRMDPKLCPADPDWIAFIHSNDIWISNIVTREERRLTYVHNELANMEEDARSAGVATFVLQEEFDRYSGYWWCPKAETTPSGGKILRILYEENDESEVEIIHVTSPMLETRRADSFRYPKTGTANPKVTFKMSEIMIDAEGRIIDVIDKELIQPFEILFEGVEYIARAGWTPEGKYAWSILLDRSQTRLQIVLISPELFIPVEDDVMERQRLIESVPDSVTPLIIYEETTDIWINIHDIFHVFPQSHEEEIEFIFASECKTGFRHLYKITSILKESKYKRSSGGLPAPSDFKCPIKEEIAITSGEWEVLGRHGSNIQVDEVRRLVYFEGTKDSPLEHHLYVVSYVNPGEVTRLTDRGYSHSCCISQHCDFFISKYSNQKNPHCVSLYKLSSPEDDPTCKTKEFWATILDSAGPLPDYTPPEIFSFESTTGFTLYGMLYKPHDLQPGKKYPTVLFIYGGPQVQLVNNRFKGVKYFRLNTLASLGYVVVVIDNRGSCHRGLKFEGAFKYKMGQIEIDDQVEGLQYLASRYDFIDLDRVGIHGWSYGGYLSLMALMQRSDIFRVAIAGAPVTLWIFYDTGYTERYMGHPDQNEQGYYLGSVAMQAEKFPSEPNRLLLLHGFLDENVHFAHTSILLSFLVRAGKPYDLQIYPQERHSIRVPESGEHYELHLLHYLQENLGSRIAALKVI
T1 sequence (P27487 whole entry, species assumed): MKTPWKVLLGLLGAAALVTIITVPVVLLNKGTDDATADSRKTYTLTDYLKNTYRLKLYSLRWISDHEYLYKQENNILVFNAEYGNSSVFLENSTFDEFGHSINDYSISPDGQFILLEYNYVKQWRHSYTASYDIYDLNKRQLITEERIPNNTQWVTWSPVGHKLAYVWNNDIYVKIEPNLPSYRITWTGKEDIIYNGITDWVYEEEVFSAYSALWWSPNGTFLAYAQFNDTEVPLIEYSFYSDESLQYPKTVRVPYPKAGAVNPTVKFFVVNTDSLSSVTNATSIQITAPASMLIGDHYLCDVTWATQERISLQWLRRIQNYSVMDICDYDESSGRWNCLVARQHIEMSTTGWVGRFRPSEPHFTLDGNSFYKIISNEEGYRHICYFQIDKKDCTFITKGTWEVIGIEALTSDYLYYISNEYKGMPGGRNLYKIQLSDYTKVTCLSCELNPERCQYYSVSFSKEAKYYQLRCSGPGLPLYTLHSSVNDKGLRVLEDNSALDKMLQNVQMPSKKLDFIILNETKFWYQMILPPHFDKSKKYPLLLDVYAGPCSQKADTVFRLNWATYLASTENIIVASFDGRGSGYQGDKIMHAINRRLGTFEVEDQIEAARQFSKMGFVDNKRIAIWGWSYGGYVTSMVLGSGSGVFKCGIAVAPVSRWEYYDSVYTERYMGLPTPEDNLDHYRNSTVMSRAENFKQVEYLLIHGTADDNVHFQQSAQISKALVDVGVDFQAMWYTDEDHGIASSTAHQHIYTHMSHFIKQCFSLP

| Inactivation Index [1] | IC50 [1, 8] [nM] | IC50 [1, 9] [nM] | Compound | also measured |
| --- | --- | --- | --- | --- |
| 12,000 | 1.6 | 19000 | N[C@@H](CCCC(=O)O)C(=S)N1CCC[C@H]1B(O)O [Aad-boroPro Thioxamide] | – |
| 1,600 | 4.5 | 7400 | N[C@@H](CCCC(=O)O)C(=O)N1CCC[C@H]1B(O)O [Aad-boroPro, reference compound] | – |
| 1.2 | 6500 | 7700 | C[C@H](NC(=S)[C@H](C)N)B(O)O [Ala-boroAla Thioxamide] | – |
| 7.0 | 63 | 440 | C[C@H](NC(=O)[C@H](C)N)B(O)O [Ala-boroAla, reference compound] | – |
| – | – | – | CC(C)C[C@H](NC(=S)[C@H](C)N)B(O)O [Ala-boroLeu Thioxamide] | Inactivation Index [2]: 110 |
| – | – | – | CC(C)C[C@H](NC(=O)[C@H](C)N)B(O)O [Ala-boroLeu, reference compound] | Inactivation Index [2]: 3.2 |
| – | – | – | C[C@H](N)C(=S)N1CCC[C@H]1B(O)O [Ala-boroPro Thioxamide] | half-life [3]: 60 min; half-life [4]: 47 min |
| – | – | – | C[C@H](N)C(=O)N1CCC[C@H]1B(O)O [Ala-boroPro, reference compound] | half-life [3]: 30 min |
| – | 1.2 | – | N=C(N)NCCC[C@H](N)C(=S)N1CCC[C@H]1B(O)O [Arg-boroPro Thioxamide] | IC50 (pH 8.0) ([1]; pH 8.0, result in words): No inhibition |
| 3,900 | 1.8 | 7100 | N=C(N)NCCC[C@H](N)C(=O)N1CCC[C@H]1B(O)O [Arg-boroPro, reference compound] | – |
| – | – | – | CC(C)C[C@H](NC(=S)[C@@H](N)CC(=O)O)B(O)O [Asp-boroLeu Thioxamide] | Inactivation Index [2]: 2.2 |
| 1,700 | 17 | 28000 | N[C@@H](CC(=O)O)C(=S)N1CCC[C@H]1B(O)O [Asp-boroPro Thioxamide] | – |
| 2,300 | 4 | 9000 | N[C@H](C(=S)N1CCC[C@H]1B(O)O)C1CCCCC1 [Chg-boroPro Thioxamide] | – |
| 190 | 4.6 | 890 | N[C@@H](CCC(=O)O)C(=S)N1CCC[C@H]1B(O)O [Glu-boroPro Thioxamide] | DPPIV Ratio [5]: 190; IC50 [5, 10]: 4.6 nM; IC50 [5, 11]: 890 nM; DP8 Ratio [6]: 130; Ratio DPP8 to DPIV (pH 2) ([6]; pH 2): 3.4; IC50 ([6]; pH 2, read-out: IC50s DP8 pH 2): 16 nM; IC50 [6, 12]: 2000 nM; DP9 Ratio [7]: 180; Ratio DP9 To DPIV (pH 2) ([7]; pH 2): 1.9; IC50 ([7]; pH 2, read-out: IC50s DP9 pH 2): 8.7 nM; IC50 [7, 13]: 1800 nM |
| 500 | 6 | 3000 | N[C@@H](CCC(=O)O)C(=O)N1CCC[C@H]1B(O)O [Glu-boroPro, reference compound] | – |
| – | – | – | CC(C)C[C@H](NC(=S)CN)B(O)O [Gly-boroLeu Thioxamide] | Inactivation Index [2]: 20 |
| – | – | – | CC(C)C[C@H](NC(=O)CN)B(O)O [Gly-boroLeu, reference compound] | Inactivation Index [2]: 11 |

| Inactivation Index [1] | IC50 [1, 8] [nM] | IC50 [1, 9] [nM] | Compound | also measured |
| --- | --- | --- | --- | --- |
| 630 | 3 | 1900 | NCC(=S)N1CCC[C@H]1B(O)O [Gly-boroPro Thioxamide] | – |
| 7,000 | 1 | 7000 | NCC(=O)N1CCC[C@H]1B(O)O [Gly-boroPro, reference compound] | – |
| 7.1 | 24 | 170 | OB(O)[C@@H]1CCCN1C(=S)CNCc1ccccc1 [N-(Benzyl)-Gly-boroPro Thioxamide] | – |
| 7,300 | 9.5 | 69000 | O=C(CNCc1ccccc1)N1CCC[C@H]1B(O)O [N-(Benzyl)-Gly-boroPro, reference compound] | – |
| – | – | – | CC(C)C[C@H](NC(=S)CNC(=O)c1cnccn1)B(O)O [N-(Pyrazine-2-carbonyl)-Gly-boroLeu Thioxamide] | Inactivation Index [2]: 3.8 |
| – | – | – | CC(C)C[C@H](NC(=O)CNC(=S)c1cnccn1)B(O)O [N-(Pyrazine-2-carbothio)-Gly-boroLeu] | Inactivation Index [2]: 4.5 |
| 250 | 160 | 40000 | OB(O)[C@@H]1CCCN1C(=S)CNC12CC3CC(CC(O)(C3)C1)C2 [NVP-LAF237 analogue Thioxamide] | – |
| 1.7 | 42 | 72 | O=C(CNC12CC3CC(CC(O)(C3)C1)C2)N1CCC[C@H]1B(O)O [NVP-LAF237 analogue, reference compound] | – |
| – | – | – | CC(C)C[C@H](NC(=O)[C@@H](N)Cc1ccccc1)B(O)O [Phe-boroLeu (free Velcade), Phe-boroLeu, reference compound] | Inactivation Index [2]: 7.5 |
| – | – | – | CC(C)C[C@H](NC(=S)[C@@H](N)Cc1ccccc1)B(O)O [Phe-boroLeu Thioxamide] | Inactivation Index [2]: 20 |
| 1,100 | 6.4 | 7000 | OB(O)[C@@H]1CCCN1C(=S)[C@@H]1CCCN1 [Pro-boroPro Thioxamide] | IC50 [5, 10]: 0.75 nM; DP8 Ratio [6]: 720; Ratio DPP8 to DPIV (pH 2) ([6]; pH 2): 3.2; IC50 ([6]; pH 2, read-out: IC50s DP8 pH 2): 2.5 nM; IC50 [6, 12]: 1800 nM; DP9 Ratio [7]: 180; Ratio DP9 To DPIV (pH 2) ([7]; pH 2): 2.5; IC50 ([7]; pH 2, read-out: IC50s DP9 pH 2): 1.9 nM; IC50 [7, 13]: 340 nM |
| 21,000 | 1.1 | 23000 | O=C([C@@H]1CCCN1)N1CCC[C@H]1B(O)O [Pro-boroPro, reference compound] | – |
| – | – | – | CC(C)C[C@H](NC(=S)CNC(=S)c1cnccn1)B(O)O [Pyz-Gly-boroLeu Perthioxamide] | Inactivation Index [2]: 620 |
| 1500 | 2 | 3000 | N[C@@H](Cc1c[nH]c2ccccc12)C(=O)N1CCC[C@H]1B(O)O [Trp-boroPro, reference compound] | – |
| 3.0 | 73 | 220 | CC(C)[C@H](N)C(=S)N[C@@H](C)B(O)O [Val-boroAla Thioxamide] | – |
| 380 | 1 | 380 | Chg-boroPro [reference compound] | – |
| – | – | – | Pro-boroAla (thioxam) | DPPIV Ratio [5]: 4.1; IC50 [5, 10]: 76 nM; IC50 [5, 11]: 310 nM; DP8 Ratio [6]: 2.2; Ratio DPP8 to DPIV (pH 2) ([6]; pH 2): 1.8; IC50 ([6]; pH 2, read-out: IC50s DP8 pH 2): 140 nM; IC50 [6, 12]: 310 nM; DP9 Ratio [7]: 1.3; Ratio DP9 To DPIV (pH 2) ([7]; pH 2): 1.1; IC50 ([7]; pH 2, read-out: IC50s DP9 pH 2): 85 nM; IC50 [7, 13]: 110 nM |

| Compound | Inactivation Index [1] | IC50 [1, 8] [nM] | IC50 [1, 9] [nM] | also measured |
| --- | --- | --- | --- | --- |
| N[C@@H](Cc1c[nH]c2ccccc12)C(=S)N1CCC[C@H]1B(O)O [Trp-boroPro Thioxamide] | 440 | 1.6 | 700 | – |
